Earlier results on three compounds are cited in patent US20080045610A1, “Methods for regulating neurotransmitter systems by inducing counteradaptations” (priority 2004, published 2008).

As usually defined, the half-life is how long it takes for the measured level to halve.

One data set concerns opiate receptor. The following applies: compared with native morphine compound.
For data set [1] the following is noted: parent compound itself.
For data set [2] the following is noted: in vivo.

In the case of `CN1CC[C@]23c4c5ccc(O)c4O[C@H]2CC=C[C@H]3[C@H]1C5` [6-desoxymorphine], in the data set with opiate receptor, the “activity relative to native morphine” value is on record as 10 times.
As to `CC(=O)Oc1ccc2c3c1O[C@H]1[C@@H](OC(C)=O)C=C[C@H]4[C@@H](C2)N(C)CC[C@@]341` [diacetylmorphine], the oral bioavailability is roughly 67%.
In the case of `C=C1CC[C@@]2(O)[C@H]3Cc4ccc(O)c5c4[C@@]2(CCN3CC2CC2)[C@H]1O5` [nalmefene], the half-life in data set [1] was 8 h. Moreover, the liver toxicity result in data set [2] is given as “no dose dependent liver toxicity”.
